The values that follow are results of earlier work, collected in US20080031898A1, “Compositions and methods to increase the effect of a neurotoxin treatment” (priority 2004, published 2008).

The structures appear in SMILES notation.

This data set concerns BRAF(V600E) mutant xenografts. Conditions: Solit et al, Nature 2006.

Consider `O=C(NOC[C@H](O)CO)c1ccc(F)c(F)c1Nc1ccc(I)cc1F` [PD0325901], for which the “suppression of xenograft growth” value is recorded as “completely suppresses the growth”.
